Values quoted from earlier work in patent US20070212387A1, “COATINGS FOR IMPLANTABLE MEDICAL DEVICES” (Sahajanand Medical Technologies Pvt. Ltd., priority 2006, published 2007).

Assays:
[1] = in water

water solubility [1]	SMILES	concentration preventing collagen induced platelet aggregation (platelets)
greater water solubility than genistein	O=c1c(-c2ccc(O)cc2)coc2cc(O[C@@H]3O[C@H](CO)[C@@H](O)[C@H](O)[C@H]3O)cc(O)c12 [Genistin]	
practically insoluble in water	O=c1c(O)c(-c2ccc(O)c(O)c2)oc2cc(O)cc(O)c12 [Quercetin, 2-(3,4-dihydroxyphenyl)-3,5,7-trihydroxy-4H-1-benzopyran-4-one]	
practically insoluble in water	O=c1c(-c2ccc(O)cc2)coc2cc(O)cc(O)c12 [Genistein, 5,7-dihydroxy-3-(4-hydroxyphenyl)-4H-1-benzopyran-4-one]	more than 25 μM
